Test results as given in US20140158116A1, “INHIBITING TRPA1 FOR THE TREATMENT OF ASTHMA” (Cubist Pharmaceuticals, Inc., priority 2012, published 2014).
Like-named read-outs stand apart in the source and are kept apart here.

Assays:
[1] = Single ascending dose Phase 1A study; format: in vivo, human; conditions: healthy male volunteers; 6 ascending single doses
Text: A randomized, double-blind, placebo-controlled, cross-over, single dose, safety, tolerability and pharmacokinetic study of 6 ascending doses of the compound of Formula (Ia) was undertaken in two cohorts of healthy male volunteers. A total of eighteen eligible healthy mail volunteers were recruited utilizing an alternating panel design. The first cohort of nine subjects (Cohort 1) was sequentially enrolled into 3 of 6 dosing periods (Dose Levels 1, 3, and 5). The remaining cohort of nine subjects (Cohort 2) was enrolled in the other 3 dosing periods (Dose Levels 2, 4, and 6). Within each dosing period, subjects were randomly assigned 2:1 to the compound of Formula (I) (n=6) or placebo (n=3). Each subject received one dose of placebo and two different doses of the compound of Formula (I) over the course of their participation in all three dosing periods. Subjects were equally randomized to one of 3 possible sequences, namely 1) placebo, active, active, 2) active, placebo, active, and 3) active, active, placebo.

hTRPC5 = target: T1, hTRPC5 (Homo sapiens, UniProt Q9UL62); test: Patch clamp selectivity, hTRPC5; format: cell-based
T1 sequence (Q9UL62 1-973): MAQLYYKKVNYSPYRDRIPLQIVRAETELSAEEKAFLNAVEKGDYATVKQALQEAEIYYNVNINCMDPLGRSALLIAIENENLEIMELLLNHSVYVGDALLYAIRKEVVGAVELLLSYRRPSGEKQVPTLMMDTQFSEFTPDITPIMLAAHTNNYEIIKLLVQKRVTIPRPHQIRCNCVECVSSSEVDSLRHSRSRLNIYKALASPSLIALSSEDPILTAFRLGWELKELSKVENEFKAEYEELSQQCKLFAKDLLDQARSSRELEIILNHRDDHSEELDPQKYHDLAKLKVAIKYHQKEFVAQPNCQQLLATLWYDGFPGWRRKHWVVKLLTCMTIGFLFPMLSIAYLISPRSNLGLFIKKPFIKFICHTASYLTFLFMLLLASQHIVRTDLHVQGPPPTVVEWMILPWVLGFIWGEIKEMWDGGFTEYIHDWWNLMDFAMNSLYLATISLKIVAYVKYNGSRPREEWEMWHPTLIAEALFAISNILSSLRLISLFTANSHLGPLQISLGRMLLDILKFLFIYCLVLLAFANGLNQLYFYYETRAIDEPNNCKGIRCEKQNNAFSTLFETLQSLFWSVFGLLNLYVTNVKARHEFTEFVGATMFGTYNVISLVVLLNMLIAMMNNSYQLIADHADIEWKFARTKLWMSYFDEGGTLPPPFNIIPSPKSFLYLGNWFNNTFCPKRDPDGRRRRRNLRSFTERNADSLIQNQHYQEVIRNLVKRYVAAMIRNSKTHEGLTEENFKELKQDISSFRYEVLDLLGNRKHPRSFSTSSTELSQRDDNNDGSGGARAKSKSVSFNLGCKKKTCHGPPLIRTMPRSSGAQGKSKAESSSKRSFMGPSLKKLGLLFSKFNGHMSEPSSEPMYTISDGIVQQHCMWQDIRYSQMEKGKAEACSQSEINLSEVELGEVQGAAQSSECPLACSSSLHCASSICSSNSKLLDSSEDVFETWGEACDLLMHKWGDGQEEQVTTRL
Description: (§1) Data for TRPA1 inhibition and the selectivity of TRPA1 inhibition was obtained by this method for the compound of Formula (Ia) and included in Table 1 and Table 2. All currents were recorded in whole-cell configuration using EPC-9 and EPC-10 amplifiers and Patchmaster software (HEKA). […] The standard pipette solution consisted of 140 mM CsAsp, 10 mM EGTA, 10 mM HEPES, 2.27 mM MgCl2, 1.91 mM CaCl2, 4 mM MgATP, and 0.1-0.3 mM Na2GTP, with pH adjusted to 7.2 with CsOH. In addition, a solution containing 145 mM CsCl, 10 mM HEPES, 10 mM EGTA and 1 mM MgCl2 (pH 7.2 adjusted with CsOH) can be used. The standard bath solution contained 150 mM NaCl, 10 mM HEPES, 10 mM glucose, 4.5 mM KCl, 1 mM EGTA, 3 mM MgCl2, with pH adjusted to 7.4 with NaOH. In some instances, 2 mM CaCl2 was added in place of EGTA and the concentration of MgCl2 was reduced to 1 mM.
(§2) Data were collected either by continuous recordings at −60 mV or by applying voltage ramps from a holding potential of 0 mV every 4 s. […] Inward and outward currents were analyzed from the ramps at −80 and 80 mV, respectively. […]
(§3) Solutions were switched using a gravity-fed continuous focal perfusion system. […] Temperatures were confirmed using a thermistor (Warner Instruments, TA-29), with temperatures at the recorded cell estimated to be within +/−2° C. of those reported. […]

hTRPA1 = hTRPA1 (Homo sapiens, UniProt O75762); test: Whole-cell patch clamp block of inward current through hTRPA1; format: cell-based
Description: as §1
(§4) Data were collected either by continuous recordings at −60 mV or by applying voltage ramps from a holding potential of 0 mV every 4 s. Continuous recordings were collected at 400 Hz and digitally filtered off-line at 10 Hz for presentation. Voltage ramps were applied from −100 mV to 100 mV over the course of 400 ms, and data were collected at 10 kHz and filtered at 2.9 kHz. Inward and outward currents were analyzed from the ramps at −80 and 80 mV, respectively. Liquid junction potential correction was not used.
(§5) Solutions were switched using a gravity-fed continuous focal perfusion system. To achieve rapid temperature changes, two temperature control and perfusion systems were employed simultaneously. For temperatures ≧22° C., a Warner Instruments bipolar temperature controller (TC-344B) and inline heater (SHM-8) were used. […] Temperatures were confirmed using a thermistor (Warner Instruments, TA-29), with temperatures at the recorded cell estimated to be within +/−2° C. of those reported.
IC50 of compounds was estimated by testing each compound at 5 micromolar and 500 nanomolar. […] IC50 for compounds between 500 nanomolar and 5 micromolar was similarly estimated. Compounds blocking 50% or more at 500 nanomolar are retested at multiple concentrations, and the % block at each is fitted by standard equations to determine IC50 accurately using a 5-6 point concentration/response experiment.

hTRPM8 = hTRPM8 (Homo sapiens, UniProt Q7Z2W7); test: Patch clamp selectivity, hTRPM8; format: cell-based
Description: as §1, §2, §3

rTRPA1 = rTRPA1 (Rattus norvegicus, UniProt Q6RI86); test: Whole-cell patch clamp block of inward current through rTRPA1; format: cell-based
Description: as §1, §4, §5
IC50 of compounds was estimated by testing each compound at 5 micromolar and 500 nanomolar. […] IC50 for compounds between 500 nanomolar and 5 micromolar was similarly estimated. […]

Sequence of hTRPA1 (O75762 whole entry): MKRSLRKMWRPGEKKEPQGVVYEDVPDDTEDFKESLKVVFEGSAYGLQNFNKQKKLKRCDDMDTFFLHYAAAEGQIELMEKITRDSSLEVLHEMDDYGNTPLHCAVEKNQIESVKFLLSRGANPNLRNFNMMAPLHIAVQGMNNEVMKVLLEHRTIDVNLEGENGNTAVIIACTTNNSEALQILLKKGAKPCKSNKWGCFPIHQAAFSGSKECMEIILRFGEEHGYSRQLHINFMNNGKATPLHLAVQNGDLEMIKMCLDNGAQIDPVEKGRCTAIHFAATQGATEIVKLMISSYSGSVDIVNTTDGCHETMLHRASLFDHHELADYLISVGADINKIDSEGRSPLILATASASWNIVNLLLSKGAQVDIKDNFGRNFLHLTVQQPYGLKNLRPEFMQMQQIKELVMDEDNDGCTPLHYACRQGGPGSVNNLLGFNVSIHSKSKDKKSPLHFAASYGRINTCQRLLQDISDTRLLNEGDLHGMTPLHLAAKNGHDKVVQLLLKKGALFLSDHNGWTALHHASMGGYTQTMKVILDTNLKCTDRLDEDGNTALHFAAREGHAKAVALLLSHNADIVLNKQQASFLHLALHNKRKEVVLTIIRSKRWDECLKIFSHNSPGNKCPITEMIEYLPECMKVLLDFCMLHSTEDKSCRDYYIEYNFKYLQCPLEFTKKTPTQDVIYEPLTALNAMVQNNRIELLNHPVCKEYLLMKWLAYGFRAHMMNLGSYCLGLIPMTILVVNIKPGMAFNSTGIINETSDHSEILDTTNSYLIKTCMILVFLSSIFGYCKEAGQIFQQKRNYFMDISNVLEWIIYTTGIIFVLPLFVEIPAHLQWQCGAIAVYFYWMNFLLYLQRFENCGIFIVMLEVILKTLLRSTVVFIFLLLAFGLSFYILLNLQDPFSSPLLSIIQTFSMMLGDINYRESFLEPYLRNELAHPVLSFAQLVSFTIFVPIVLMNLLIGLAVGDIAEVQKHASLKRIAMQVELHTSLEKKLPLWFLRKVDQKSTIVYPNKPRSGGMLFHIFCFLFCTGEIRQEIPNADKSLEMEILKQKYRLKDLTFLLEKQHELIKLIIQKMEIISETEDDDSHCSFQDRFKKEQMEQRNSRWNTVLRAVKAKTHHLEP
Sequence of hTRPM8 (Q7Z2W7 whole entry): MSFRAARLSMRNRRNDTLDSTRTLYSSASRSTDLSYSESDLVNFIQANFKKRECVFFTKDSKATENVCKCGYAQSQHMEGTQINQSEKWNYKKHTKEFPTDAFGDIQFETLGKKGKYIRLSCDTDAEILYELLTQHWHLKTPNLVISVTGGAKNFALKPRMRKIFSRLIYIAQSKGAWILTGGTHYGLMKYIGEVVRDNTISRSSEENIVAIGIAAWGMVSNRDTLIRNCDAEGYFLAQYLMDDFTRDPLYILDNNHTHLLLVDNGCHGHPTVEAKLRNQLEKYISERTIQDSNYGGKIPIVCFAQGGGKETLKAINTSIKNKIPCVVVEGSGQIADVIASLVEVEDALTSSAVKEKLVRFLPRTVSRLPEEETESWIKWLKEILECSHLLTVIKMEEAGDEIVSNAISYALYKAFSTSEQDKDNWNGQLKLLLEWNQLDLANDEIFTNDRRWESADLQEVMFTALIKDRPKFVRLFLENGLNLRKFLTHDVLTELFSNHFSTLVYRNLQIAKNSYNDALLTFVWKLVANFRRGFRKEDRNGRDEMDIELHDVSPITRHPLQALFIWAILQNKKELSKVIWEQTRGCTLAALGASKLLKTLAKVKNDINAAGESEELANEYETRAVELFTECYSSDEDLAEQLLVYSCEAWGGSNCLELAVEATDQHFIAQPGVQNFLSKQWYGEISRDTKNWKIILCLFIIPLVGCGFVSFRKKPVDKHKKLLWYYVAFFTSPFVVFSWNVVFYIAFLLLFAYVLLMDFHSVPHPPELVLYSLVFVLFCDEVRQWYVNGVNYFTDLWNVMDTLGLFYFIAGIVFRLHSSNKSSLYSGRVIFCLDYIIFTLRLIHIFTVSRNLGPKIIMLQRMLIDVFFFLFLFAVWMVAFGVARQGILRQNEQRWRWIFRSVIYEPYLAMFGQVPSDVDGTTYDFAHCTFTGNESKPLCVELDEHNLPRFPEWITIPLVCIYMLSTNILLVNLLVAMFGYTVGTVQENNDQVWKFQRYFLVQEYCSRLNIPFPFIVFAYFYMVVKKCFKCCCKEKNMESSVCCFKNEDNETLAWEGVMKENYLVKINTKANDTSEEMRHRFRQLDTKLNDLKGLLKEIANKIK
Sequence of rTRPA1 (Q6RI86 whole entry): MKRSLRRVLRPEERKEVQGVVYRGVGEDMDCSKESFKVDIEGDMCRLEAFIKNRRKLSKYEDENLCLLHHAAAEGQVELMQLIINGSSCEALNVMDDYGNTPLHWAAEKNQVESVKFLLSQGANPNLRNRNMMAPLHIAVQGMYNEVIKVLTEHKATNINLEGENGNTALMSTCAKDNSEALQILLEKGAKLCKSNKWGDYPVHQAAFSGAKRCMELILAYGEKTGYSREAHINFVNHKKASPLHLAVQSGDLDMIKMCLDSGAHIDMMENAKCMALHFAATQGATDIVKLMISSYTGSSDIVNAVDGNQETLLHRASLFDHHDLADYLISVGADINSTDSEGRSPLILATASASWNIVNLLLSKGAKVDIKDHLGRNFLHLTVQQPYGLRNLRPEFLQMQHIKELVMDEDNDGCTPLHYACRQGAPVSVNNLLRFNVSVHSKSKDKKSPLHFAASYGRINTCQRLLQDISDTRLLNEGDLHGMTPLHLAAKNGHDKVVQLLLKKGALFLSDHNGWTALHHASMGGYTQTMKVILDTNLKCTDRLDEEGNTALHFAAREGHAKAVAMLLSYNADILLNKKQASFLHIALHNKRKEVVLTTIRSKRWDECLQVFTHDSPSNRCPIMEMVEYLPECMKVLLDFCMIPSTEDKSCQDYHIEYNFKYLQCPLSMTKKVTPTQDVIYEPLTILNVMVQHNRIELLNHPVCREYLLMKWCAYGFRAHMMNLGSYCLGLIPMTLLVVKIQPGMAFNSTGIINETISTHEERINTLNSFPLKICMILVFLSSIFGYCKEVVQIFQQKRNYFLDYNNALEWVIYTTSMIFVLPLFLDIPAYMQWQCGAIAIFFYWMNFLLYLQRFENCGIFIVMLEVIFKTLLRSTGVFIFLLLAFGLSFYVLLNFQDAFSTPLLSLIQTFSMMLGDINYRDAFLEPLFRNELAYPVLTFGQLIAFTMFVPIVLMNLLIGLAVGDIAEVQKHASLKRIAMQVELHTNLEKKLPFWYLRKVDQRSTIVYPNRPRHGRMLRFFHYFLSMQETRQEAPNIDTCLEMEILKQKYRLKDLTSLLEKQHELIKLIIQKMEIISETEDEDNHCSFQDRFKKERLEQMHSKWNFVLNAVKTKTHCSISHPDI

Fold Selectivity Compared to TRPA1 (hTRPC5): >100 fold
IC50 (hTRPC5; 80 micromolar LaCl3, Inward (−80 mV)): > 10 µM
IC50 (hTRPA1; hTRPA1, Human, current activation 10 micromolar AITC, whole cell patch, read-out: IC50 Inward current): 0.093 ± 0.022 µM
IC50 (hTRPA1; hTRPA1, class symbol, read-out: Potency (IC50) Human): 0.05 to 0.1 µM
selectivity for block of TRPA1 over all other tested channels (hTRPA1; versus the eight channels of Table 2): at least 100 fold
Fold Selectivity Compared to TRPA1 (hTRPM8): ~200 fold
IC50 (hTRPM8; 100 micromolar Menthol, Inward (−80 mV)): 19 µM
IC50 (rTRPA1; class symbol, read-out: Potency (IC50) Rat): ≥ 0.1 µM
IC50 (rTRPA1; rTRPA1, Rat, current activation 10 micromolar AITC, read-out: IC50 Inward current): 0.101 ± 0.008 µM
SMILES: C[C@H]1CCCN1c1ncc(-c2cccc(NC(=O)Cn3cnc4c3c(=O)n(C)c(=O)n4C)n2)cn1 [Formula (Ia)]
safety signals [1]: no safety signals seen that were attributable to the compound of Formula (Ia)
